Data: patent US20220395522A1, “Methods of Use of Glucosamine for Increasing Nitrogen Retention” (TSI Bioproducts (Xuzhou) Co., Ltd., priority 2021, published 2022)

Assay: Gastrointestinal Symptom Rating Scale (GSRS)
Type: in vivo, human
Conditions: for Abdom Pain (combined score of GSRS 1, GSRS4, and GSRS5) / Diarrhea (combined score of GSRS11 and GSRS14) / GSRS1 Pain and discomfort in upper abdomen or stomach / GSRS2 Heartburn / GSRS3 Acid reflux / GSRS4 Hunger pangs / GSRS5 Nausea / GSRS6 Stomach rumbling / GSRS7 Stomach bloating / GSRS8 Burping / GSRS9 Passing gas or flatulence / GSRS11 Diarrhea / GSRS14 Urgent need to have a bowel movement / GSRS15 Sensation of not completely emptying the bowels / Ingestion (combined score of GSRS6, GSRS7, GSRS8, and GSRS9) / Reflux (combined score of GSRS2 and GSRS3) / Constipation (combined score of GSRS10, GSRS13, and GSRS14), 'Constipation Syndrome' / GSRS10 Constipation / GSRS13 Hard stools: GLU condition, mean ± SD; for Constipation (combined score of GSRS10, GSRS13, and GSRS14), 'Constipation Syndrome' / GSRS10 Constipation / GSRS13 Hard stools: hydrochloride
From the text: The remainder of the study consisted of two identical patterns of testing with the exception of what supplementation protocol was followed. FIG. 1 provides a flowchart of the experimental design. Prior to each visit, food and physical activity logs were completed encompassing four days prior to the scheduled laboratory visit. The four days consisted of two weekend days and two weekdays. Each participant reported to the laboratory for a baseline measurement of height, weight, heart rate, and blood pressure. During this visit, participants completed the Bristol Stool Chart and Gastrointestinal Symptom Rating Scale (GSRS) to assess bowel habits and potential gastrointestinal symptoms. Participants were given instructions on how to collect a stool sample and were instructed to do so within 24 hours of each planned study visit. At the completion of this study visit, participants were provided with their first assigned supplement (either PLA [placebo] or GLU [glucosamine]) and instructed to begin supplementation 21 days prior to their second visit. Participants were instructed to collect their second stool sample on the day of their final supplementation dose. On the morning of their second study visit, participants reported to the laboratory after following identical pre-study instructions as previous visits (i.e., fasting, abstention from caffeine and exercise). Study participants again completed assessments for height, weight, heart rate, blood pressure, and questionnaires regarding their bowel habits and gastrointestinal symptoms while also providing their second stool sample and turning in completed food and activity logs. A washout period lasting a minimum of 14 days and a maximum of 21 days separated each phase of the crossover as shown in FIG. 1. […] In a double-blind manner, a glucosamine supplement (GLU) or a maltodextrin placebo (PLA) was distributed in identical opaque capsules to all participants. On a daily basis, participants were instructed to ingest three capsules, each containing 1,000 mg of glucosamine hydrochloride (GlucosaGreen®, TSI Group Ltd. MT, USA) or a placebo (maltodextrin) identical in appearance for a total of 21 days. Each visit at the beginning of the supplementation regimen (Visits 1 and 4, respectively; See FIG. 1) occurred on or before the first day of supplementation while the final day of supplementation occurred the day before each participant's follow-up visit for that study period (Visits 2 and 4, respectively). Participants were instructed to ingest the supplement 15-30 minutes before breakfast with eight fluid ounces of cold water. In the case of a missed dose, participants were instructed to consume the missed dose as soon as possible with a meal. […] The dose of maltodextrin used in the following examples was two to five-fold lower, respectively, than these investigations. Participants completed electronic (Qualtrics, Inc.) versions of the Bristol Stool Chart and the Gastrointestinal Symptoms Rating Scale (GSRS) at four time points throughout the entire study protocol. The first two questionnaires were completed before and after the first supplementation period while the final two questionnaires were collected before and after the second supplementation period. The Bristol Stool Chart requires participants to classify their bowel movements into one of seven different types of stool. Type 1 was classified as being “Separate hard lumps, like nuts (hard to pass)”, Type 2 being “Sausage-shaped, lumpy, uncomfortable to pass”, Type 3 being “Like a sausage, with cracks on its surface”, Type 4 being “Like a sausage or snake, smooth and soft”, Type 5 being “Soft blobs with clear-cut edges, passes easily”, Type 6 being “Fluffy pieces with ragged edges, a mushy stool”, and Type 7 being “Watery, no solid pieces, entirely liquid”. The Gastrointestinal Symptoms Rating Scale (GSRS), a 15-item clinical rating scale was completed a total of four times to assess symptoms related to gastrointestinal distress during the past week. […]

[1] = Post 21 days, 3 x 1,000 mg/day oral

## Cl.N[C@H]1C(O)O[C@H](CO)[C@@H](O)[C@@H]1O (stereo partly shown) [GLU, glucosamine hydrochloride]
[1]
  Abdom Pain (combined score of GSRS 1, GSRS4, and GSRS5): 4.18 ± 1.66
  Diarrhea (combined score of GSRS11 and GSRS14): 3.27 ± 1.56
  GSRS1 Pain and discomfort in upper abdomen or stomach: 1.5 ± 0.7
  GSRS2 Heartburn: 1.2 ± 0.4
  GSRS3 Acid reflux: 1.2 ± 0.4
  GSRS4 Hunger pangs: 1.18 ± 0.4
  GSRS5 Nausea: 1.55 ± 1.21
  GSRS6 Stomach rumbling: 2.2 ± 1.3
  GSRS7 Stomach bloating: 2.1 ± 1.22
  GSRS8 Burping: 1.2 ± 0.4
  GSRS9 Passing gas or flatulence: 2.46 ± 1.21
  GSRS11 Diarrhea: 1.73 ± 1.56
  GSRS14 Urgent need to have a bowel movement: 1.55 ± 0.93
  GSRS15 Sensation of not completely emptying the bowels: 1.09 ± 0.3
  Ingestion (combined score of GSRS6, GSRS7, GSRS8, and GSRS9): 7.91 ± 2.98
  Reflux (combined score of GSRS2 and GSRS3): 2.36 ± 0.67
  Constipation (combined score of GSRS10, GSRS13, and GSRS14), 'Constipation Syndrome': 3.27±0.9
  GSRS10 Constipation: 1.09±0.3
  GSRS13 Hard stools: 1.09±0.3
Pre (baseline)
  Abdom Pain (combined score of GSRS 1, GSRS4, and GSRS5): 4.27 ± 1.68
  Diarrhea (combined score of GSRS11 and GSRS14): 2.27 ± 0.9
  GSRS1 Pain and discomfort in upper abdomen or stomach: 1.2 ± 0.4
  GSRS2 Heartburn: 1.1 ± 0.3
  GSRS3 Acid reflux: 1.0 ± 0.0
  GSRS4 Hunger pangs: 1.82 ± 0.98
  GSRS5 Nausea: 1.27 ± 0.9
  GSRS6 Stomach rumbling: 1.5 ± 0.69
  GSRS7 Stomach bloating: 1.9 ± 1.22
  GSRS8 Burping: 1.2 ± 0.4
  GSRS9 Passing gas or flatulence: 1.82 ± 0.75
  GSRS11 Diarrhea: 1.0 ± 0.0
  GSRS14 Urgent need to have a bowel movement: 1.27 ± 0.9
  GSRS15 Sensation of not completely emptying the bowels: 1.73 ± 1.1
  Ingestion (combined score of GSRS6, GSRS7, GSRS8, and GSRS9): 6.45 ± 2.5
  Reflux (combined score of GSRS2 and GSRS3): 2.09 ± 0.3
  Constipation (combined score of GSRS10, GSRS13, and GSRS14), 'Constipation Syndrome': 5.09±3.45
  GSRS10 Constipation: 1.82±1.4
  GSRS13 Hard stools: 1.55±1.04
PLA vs. GLU, between-group
  Abdom Pain combined score, %: 4.2%
  Constipation combined score, %: −33.3%
  Diarrhea combined score, %: 30.6%
  GSRS1, %: 31.3%
  GSRS2, %: −0.9%
  GSRS3, %: 20.0%
  GSRS4, %: −11.3%
  GSRS5, %: 35.4%
  GSRS6, %: 37.6%
  GSRS7, %: −30.7%
  GSRS8, %: −10%
  GSRS9, %: 8.8%
  GSRS10, %: −64.9%
  GSRS11, %: 55.0%
  GSRS13, %: −15.5%
  GSRS14, %: 13.0%
  GSRS15, %: −23.8%
  Ingestion combined score, %: −0.4%
  Reflux combined score, %: 8.4%
Post vs Pre, p=0.32
  Stomach bloating ratings (GSRS7), change from baseline: no changes were observed
